Results published in PubChem BioAssay (NCI).
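Values below derive from 48-hour exposures of cells grown in 96-well plates, with endpoints linearly interpolated between the two concentrations bracketing the appropriate inhibition level. GI50: concentration for 50% inhibition of growth. TGI: total growth inhibition.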

Assays:
Experiment in all cases: NCI-60 cell line screen, 48 h
[1] = test system: A498 renal
[2] = test system: ACHN renal
[3] = test system: CAKI-1 renal
[4] = test system: COLO 205 colon
[5] = test system: DU-145 prostate
[6] = test system: HCC-2998 colon
[7] = test system: NCI-H226 lung
[8] = test system: OVCAR-4 ovarian
[9] = test system: RPMI-8226 leukemia
[10] = test system: UO-31 renal

| Compound | GI50 [1] | TGI [1] | GI50 [2] | TGI [2] | GI50 [3] | TGI [3] | GI50 [4] | TGI [4] | GI50 [5] | TGI [5] | GI50 [6] | TGI [6] | GI50 [7] | TGI [7] | GI50 [8] | TGI [8] | GI50 [9] | TGI [9] | GI50 [10] | TGI [10] |
| --- | --- | --- | --- | --- | --- | --- | --- | --- | --- | --- | --- | --- | --- | --- | --- | --- | --- | --- | --- | --- |
| O=C(Nc1cc(C(F)(F)F)ccc1F)Nc1n[nH]c2ccccc12 | > 100 µM | > 100 µM | > 100 µM | > 100 µM | > 100 µM | > 100 µM | > 100 µM | > 100 µM | > 100 µM | > 100 µM | > 100 µM | > 100 µM | > 100 µM | > 100 µM | > 100 µM | > 100 µM | > 100 µM | > 100 µM | > 100 µM | > 100 µM |
| O=C(Nc1ccc(Br)cc1)Nc1n[nH]c2ccccc12 | > 100 µM | > 100 µM | 23.3 µM | > 100 µM | > 100 µM | > 100 µM | > 100 µM | > 100 µM | > 60.2 µM | > 100 µM | > 100 µM | > 100 µM | > 91 µM | > 100 µM | 56.7 µM | > 100 µM |  | > 100 µM | 25.8 µM | > 100 µM |
| CN1CCN(c2ccc3nc(-c4cc(C(C)(C)C)c(O)c(C(C)(C)C)c4)[nH]c3c2)CC1 | 7.23 µM | 21.2 µM | 3.06 µM | 8.62 µM | 1.75 µM | 3.49 µM | 2.02 µM | 4.26 µM | 4.66 µM | 16 µM | 1.85 µM | 3.43 µM | 14.7 µM | 32.4 µM | 5.43 µM | 19 µM | 2.08 µM | 4.85 µM | 1.7 µM | 3.08 µM |
| CC(=O)OC1CC2CCC1(C)C2(C)C (configuration not stated) |  | > 100 µM |  | > 100 µM |  |  |  | > 100 µM |  | > 100 µM |  | > 100 µM |  | > 100 µM |  | > 100 µM |  | > 100 µM |  | > 100 µM |
| CC(=O)OC1COC(S[As](C)C)C(OC(C)=O)C1OC(C)=O (configuration not stated) | 0.285 µM | 1.56 µM | 0.195 µM | 1.52 µM | 0.041 µM | 0.74 µM | 0.575 µM | 4.96 µM | 0.0701 µM | 0.902 µM | 0.333 µM | 0.922 µM | 1.47 µM | 7.9 µM | 2.53 µM | 24 µM |  | 0.0245 µM | 0.102 µM | 0.805 µM |
| CS(=O)(=O)CCNCc1ccc(-c2ccc3ncnc(Nc4ccc(OCc5cccc(C(F)(F)F)c5)cc4)c3c2)o1 | 4.38 µM | 13.1 µM | 7.38 µM | > 25 µM | 5.57 µM | > 19.8 µM | 6.83 µM | > 15.5 µM | 6.98 µM | > 22.6 µM | 4.46 µM | 8.26 µM | > 16.3 µM | > 25 µM | 8.68 µM | > 25 µM | 5.7 µM | 16.5 µM | 4.34 µM | 10.2 µM |
| COc1cc(CSc2nc3ccc(C)cc3c(=O)n2Cc2ccccc2)cc(OC)c1OC | 2.14 µM | 12.4 µM | 3.89 µM | 55.7 µM | 2.48 µM | > 100 µM | 1.05 µM | 3.13 µM | 3.14 µM | 20.4 µM | 3.96 µM | > 100 µM | 11.5 µM | 96.1 µM | 5.01 µM | 63.4 µM | 2.96 µM | > 100 µM | 3.05 µM | > 100 µM |
| COC(=O)CCC(=O)c1c(C)[nH]c(/C=C2\N=C(c3ccc[nH]3)C=C2OC)c1C | 7.86 µM | 20.7 µM | 0.783 µM | 4.18 µM | 0.869 µM | 2.95 µM | 1.04 µM | 3.29 µM | 0.344 µM | 1.8 µM | 1.41 µM | 5.84 µM | 1.08 µM | 3.27 µM | 2.12 µM | 17 µM | 0.36 µM | 1.87 µM | 0.279 µM | 0.866 µM |
| COc1cc(-c2[nH]ccc2Cl)oc1C1=C2N=C3C=C2C(C(C)C)C1CCCCCCCC3 (configuration not stated) |  | 5.31 µM |  | 3.12 µM |  | 5.27 µM |  | 1.87 µM |  | 1.85 µM |  | 1.77 µM |  | 3.51 µM |  | 2.48 µM |  | 5.34 µM |  | 2.55 µM |
| COCCOC(=O)C1=C(C)NC2=C(C(=O)CC(c3ccccc3OC)C2)C1c1cccc(O)c1 (configuration not stated) | 10.2 µM | 25.9 µM | 19.1 µM | 71.2 µM | 4.43 µM | 31.3 µM | 8.55 µM | 24.8 µM | 23.5 µM | > 91.9 µM | 12.2 µM | 27 µM | 8.64 µM | 35.7 µM | 8.98 µM | > 80.5 µM | 4.01 µM | 31.4 µM | 3.62 µM | 45.8 µM |
| CCCCCCCCCCCCCCCC(=O)OCC(O)C1OC(=O)C(O)=C1O (configuration not stated) |  | 77 µM |  | 98.7 µM |  | 96.6 µM |  | > 100 µM |  | > 100 µM |  | > 100 µM |  | 47.1 µM |  | > 100 µM |  |  |  | 59.9 µM |
| Cc1nn(C(=O)c2ccc(Cl)cc2)c2c1C(c1ccc([N+](=O)[O-])cc1)SC(N)=N2 (configuration not stated) |  |  |  | > 10 µM |  | > 10 µM |  | > 10 µM |  | > 10 µM |  | > 10 µM |  | > 10 µM |  | > 10 µM |  | > 10 µM |  |  |
| [Cu+2].[O-]c1ccc2ccccc2c1N=Nc1ccccc1.[O-]c1ccc2ccccc2c1N=Nc1ccccc1 |  |  |  | > 100 µM |  | > 100 µM |  | > 100 µM |  | > 100 µM |  | > 100 µM |  | > 100 µM |  | > 100 µM |  | > 100 µM |  | > 100 µM |
| COc1ccc(C(O)CNC(=O)c2ccccc2)cc1 (configuration not stated) |  | > 100 µM |  | > 100 µM |  | > 100 µM |  | > 100 µM |  | > 100 µM |  | > 100 µM |  | > 100 µM |  | > 100 µM |  | > 100 µM |  |  |
